Experimental data reported in article PMC7278020, “Triterpenic Acids as Non-Competitive α-Glucosidase Inhibitors from Boswellia elongata with Structure-Activity Relationship: In Vitro and In Silico Studies” (Biomolecules, 2020).
Read-outs that look alike come from different tables or passages of the source.

Key:
[1] = target: T1, α-Glucosidase enzyme (E.C. 3.2.1.20) (Saccharomyces cerevisiae, UniProt P53341); assay: biochemical
T1 construct: purchased Sigma-Aldrich G0660-750UN
Experimental: (§1) α-Glucosidase enzyme (E.C. 3.2.1.20) from Saccharomyces cerevisiae were purchased from Sigma-Aldrich (Darmstadt, Hesse, Germany) with product number of G0660-750UN and their inhibition assay was carried out by using 0.1 M phosphate buffer (pH 6.8) solution at 37 °C. […] For the kinetics studies, different concentrations (0.1, 0.2, 0.4 and 0.8 mM) of p-nitrophenyl-α-D-glucopyranoside (substrate) were used. In control the tested compounds were replaced with DMSO-d6 (7.5% final). […] Three time the experiment was repeated having triplicate of each samples. The % inhibition was calculated by using the following formula:% Inhibition = 100 − (OD test well/OD control) ×100 (OD = Optical density)

[2] = target: T2, α-glucosidase enzyme (Saccharomyces cerevisiae, UniProt P53341); assay: Kinetics studies on α-glucosidase (Lineweaver–Burk, secondary replot, Dixon plot); assay type: biochemical; conditions: for Type of Inhibition: Lineweaver–Burk plots
T2 construct: purchased Sigma-Aldrich G0660-750UN
Experimental: as §1
The type of inhibition was determined by Lineweaver–Burk plots, the reciprocal of the rate of the reaction was plotted against the reciprocal of substrate concentrations to monitor the effect of inhibitor on both Km and Vmax. […] In non-competitive inhibition, the Vmax of enzyme decreased, while Km are not affected. […] The secondary replots of Lineweaver–Burk plots were used to determine the Ki values.

[3] = target: T1, α-Glucosidase enzyme (E.C. 3.2.1.20); conditions: the previous investigation; acetyl group at C-3 position; cited from earlier work
[4] = target: T2, α-glucosidase enzyme; set-up: method as in PMID 29030193; conditions: cited from earlier work
[5] = pH 6.8, 37 °C, substrate p-nitrophenyl-α-D-glucopyranoside 0.7 mM, NA = Not active, read-out: IC50 = µM ± SEM
[6] = substrate 0.1, 0.2, 0.4 and 0.8 mM, read-out: Ki = µM ± SEM

T1 sequence (P53341 whole entry): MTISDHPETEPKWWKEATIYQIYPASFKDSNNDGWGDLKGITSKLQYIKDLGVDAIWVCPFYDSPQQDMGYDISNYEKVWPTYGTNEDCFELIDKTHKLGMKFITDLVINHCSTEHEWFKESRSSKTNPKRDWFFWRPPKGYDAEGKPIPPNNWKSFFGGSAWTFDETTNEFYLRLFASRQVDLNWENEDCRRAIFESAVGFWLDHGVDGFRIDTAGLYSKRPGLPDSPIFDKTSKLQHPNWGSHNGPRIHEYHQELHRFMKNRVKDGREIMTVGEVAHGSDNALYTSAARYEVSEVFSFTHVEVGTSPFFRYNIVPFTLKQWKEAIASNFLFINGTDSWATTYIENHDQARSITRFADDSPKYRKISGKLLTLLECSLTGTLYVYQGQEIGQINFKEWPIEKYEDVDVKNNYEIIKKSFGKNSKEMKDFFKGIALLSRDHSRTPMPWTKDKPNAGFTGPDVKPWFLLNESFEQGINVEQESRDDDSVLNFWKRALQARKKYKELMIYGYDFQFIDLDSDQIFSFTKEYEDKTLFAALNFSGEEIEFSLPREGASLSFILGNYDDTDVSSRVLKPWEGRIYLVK
T2 sequence (P53341 whole entry): as above

C[C@@H]1CC[C@]2(C)CC[C@]3(C)C(=CC=C4[C@@]5(C)CC[C@@H](O)[C@](C)(C(=O)O)C5CC[C@]43C)C2[C@H]1C (stereo partly drawn) [Compound 5, 9,11-Dehydro-β-boswellic acid]
IC50 [1, 5]: 20.9 ± 0.05 µM | Type of Inhibition [2]: Non-competitive | Ki [2, 6]: 15.3 ± 0.54 µM

CC(=O)O[C@@H]1CC[C@]2(C)C3=CC=C4C5[C@@H](C)[C@H](C)CC[C@]5(C)CC[C@@]4(C)[C@]3(C)CCC2[C@@]1(C)C(=O)O (stereo partly drawn) [Compound 4, 3-O-Acetyl-9,11-dehydro-β-boswellic acid]
IC50 [1]: 9.9 ± 0.48 µM | times more active than the standard inhibitor acarbose ([1]; from IC50 values): 94 times | Ki [2]: 7.05 ± 0.75 µM | Type of Inhibition [2]: Non-competitive

C[C@@H]1CC[C@H]2[C@@H]1C1C(CC[C@]2(C)O)C1(C)C (some centres unmarked) [Compound 19, Viridiflorol]
inhibition at 1000 µM [1]: < 50%

CO[C@@H]1C=C2C3[C@@H](C)[C@H](C)CC[C@]3(C)CC[C@@]2(C)[C@]2(C)CCC3[C@](C)(CC[C@@H](O)[C@]3(C)C(=O)O)C12 (stereo partly drawn) [Compound 11, 11α-methoxy-β-boswellic acid]
IC50 [1]: 14.9 ± 1.31 µM | Ki [2]: 8.05 ± 0.38 µM | Type of Inhibition [2]: Non-competitive

CC(=O)O[C@@H]1CC[C@@]2(C)[C@@H](CC[C@]3(C)[C@@H]2CC=C2[C@@H]4[C@@H](C)[C@H](C)CC[C@]4(C)CC[C@]23C)[C@@]1(C)C(=O)O [Compound 6, 3-Acetyl-β-boswellic acid]
glucosidase inhibition (in words) [3]: most promising glucosidase inhibitors

C/C1=C\CC/C(C)=C/C[C@H](C(C)(C)O)CC/C(C)=C/CC1 [Compound 20, Iso-serratol]
inhibition at 1000 µM [1]: < 50%

CC(C)=CCC[C@H](C)C1CC[C@]2(C)C3=C(CC[C@@]12C)[C@@]1(C)CC[C@@H](O)C(C)(C)C1CC3 (stereo partly drawn) [Compound 2, 5α-Tirucalla-8,24-dien-3α-ol]
inhibition at 1000 µM [1]: < 50%

CC(=O)O[C@@H]1CC[C@@]2(C)[C@@H](CC[C@]3(C)[C@@H]2CC=C2[C@@H]4CC(C)(C)CC[C@]4(C)CC[C@]23C)[C@@]1(C)C(=O)O [Compound 12, 3-Acetyl-α-boswellic acid]
glucosidase inhibition (in words) [3]: most promising glucosidase inhibitors

CC(=O)O[C@@H]1CC[C@@]2(C)[C@@H](CC[C@]3(C)[C@@H]2C(=O)C=C2[C@@H]4[C@@H](C)[C@H](C)CC[C@]4(C)CC[C@]23C)[C@@]1(C)C(=O)O [Compound 7, 3-Acetyl 11-keto-β-boswellic acid]
glucosidase inhibition (in words) [3]: most promising glucosidase inhibitors

CC(=O)O[C@@H]1CC[C@]2(C)C3=C(CCC2C1(C)C)[C@@]1(C)CCC([C@H](CCC=C(C)C)C(=O)O)[C@]1(C)CC3 (stereo partly drawn) [Compound 3, 3α-Acetoxytirucall-8,24-dien-21-oic acid]
IC50 [1, 5]: 56.8 ± 1.3 µM | Type of Inhibition [2]: Non-competitive | Ki [2, 6]: 51.1 ± 0.63 µM

C[C@H]1[C@H](C)CC[C@]2(C(=O)O)CC[C@]3(C)C(=CC[C@@H]4[C@@]5(C)CC[C@H](O)C(C)(C)[C@@H]5CC[C@]43C)[C@H]12 [ursolic acid]
Type of inhibition of α-glucosidase (literature) [4]: non-competitive inhibitors

CC(=O)OC1CCC2(C)C3=C(CCC2C1(C)C)C1(C)CCC(C(C)CCC=C(C)C)C1(C)CC3 (stereo not drawn) [Compound 1, 5α-tirucalla-8,24-dien-3α-acetate]
inhibition at 1000 µM [1]: < 50% | IC50 = µM ± SEM ([1]; pH 6.8, 37 °C, substrate p-nitrophenyl-α-D-glucopyranoside 0.7 mM, NA = Not active): inactive

CC1(C)CC[C@]2(C(=O)O)CC[C@]3(C)C(=CC[C@@H]4[C@@]5(C)CC[C@H](O)C(C)(C)[C@@H]5CC[C@]43C)[C@@H]2C1 [oleanolic acid]
Type of inhibition of α-glucosidase (literature) [4]: non-competitive inhibitors
